Assay results: ChEMBL document CHEMBL4028802, “DILIrank: the largest reference drug list ranked by the risk for developing drug-induced liver injury in humans” (Drug Discov Today, 2016)
Starred links: 1 amine or outer side, 2 acyl side, 3 side chain; linkers in the order of their positions; H or OH if unused. Positions of bridges follow the written chain, without caps; N, C: chain ends. Non-standard residues stand in square brackets, D forms with d. Residues, ends and D or L forms follow the SMILES beside them. *: point of attachment. pTerphenylCO(4''-OnC5H11) = CCCCCOc1ccc(-c2ccc(-c3ccc(C(=O)*)cc3)cc2)cc1; Orn(4R-OH,5R-OH) = O=C([C@H](C[C@@H](O)[C@@H](O)N[*:3])N[*:1])[*:2]; hTyr(3S-OH,4S-OH) = N[C@H](C(=O)O)[C@H](O)[C@@H](O)c1ccc(O)cc1; dPhe(4-NHCONH2) = NC(=O)Nc1ccc(C[C@@H](N)C(=O)O)cc1; Pro(3S-OH,4S-Me) = C[C@H]1CN[C@H](C(=O)O)[C@H]1O; Dihydroorotyl(S) = O=C1C[C@@H](C(=O)*)NC(=O)N1; dPhe(4-Cl) = N[C@H](Cc1ccc(Cl)cc1)C(=O)O; Phe(4-NH2) = Nc1ccc(C[C@H](N)C(=O)O)cc1; d2Nal = N[C@H](Cc1ccc2ccccc2c1)C(=O)O; Lys(iPr) = CC(C)NCCCC[C@H](N)C(=O)O; Hyp = O=C(O)[C@@H]1C[C@@H](O)CN1; d3Pal = N[C@H](Cc1cccnc1)C(=O)O

How the values were obtained:
Homo sapiens [1] = species on record: Homo sapiens; experiment: Liver toxicity in human assessed as induction of drug-induced liver injury by measuring severity class index
Homo sapiens [2] = species on record: Homo sapiens; experiment: Liver toxicity in human assessed as induction of drug-induced liver injury by measuring verified drug-induced liver injury concern status
For DILI severity class in this document: key of the grades not given here.

Row | Structure (SMILES) | DILI_severity_class (Homo sapiens [1]) | DILI_Concern (Homo sapiens [2])
1 | CC[C@H](C)[C@H](NC(=O)[C@@H]1CCCN1C(=O)CNC(=O)[C@H](Cc1ccccc1)NC(=O)[C@H](CC(N)=O)NC(=O)[C@H](CC(N)=O)NC(=O)[C@H](CO)NC(=O)[C@H](CO)NC(=O)[C@H](Cc1c[nH]cn1)NC(=O)[C@@H](NC(=O)[C@H](CC(C)C)NC(=O)[C@H](Cc1ccccc1)NC(=O)[C@H](CC(N)=O)NC(=O)[C@H](C)NC(=O)[C@H](CC(C)C)NC(=O)[C@H](CCCNC(=N)N)NC(=O)[C@H](CCC(N)=O)NC(=O)[C@@H](NC(=O)[C@H](C)NC(=O)[C@@H]1CSSC[C@H](NC(=O)[C@@H](N)CCCCN)C(=O)N[C@@H](CC(N)=O)C(=O)N[C@@H]([C@@H](C)O)C(=O)N[C@@H](C)C(=O)N[C@@H]([C@@H](C)O)C(=O)N1)[C@@H](C)O)C(C)C)C(=O)N[C@@H](CC(C)C)C(=O)N1CCC[C@H]1C(=O)N1CCC[C@H]1C(=O)N[C@H](C(=O)N[C@@H](CC(N)=O)C(=O)N[C@H](C(=O)NCC(=O)N[C@@H](CO)C(=O)N[C@@H](CC(N)=O)C(=O)N[C@H](C(=O)N[C@@H](Cc1ccc(O)cc1)C(N)=O)[C@@H](C)O)C(C)C)[C@@H](C)O [PRAMLINTIDE] | 0 | No-Dili-Concern
2 | O=C(O)CCc1nc(-c2ccccc2)c(-c2ccccc2)o1 [OXAPROZIN] | 3 | Less-Dili-Concern
3 | COc1ccc2cc(CCC(C)=O)ccc2c1 [NABUMETONE] | 3 | Ambiguous-Dili-Concern
4 | CCN(CC)CCN1C(=O)CN=C(c2ccccc2F)c2cc(Cl)ccc21 [FLURAZEPAM] | 4 | Less-Dili-Concern
5 | CCOC(=O)[C@H](CCc1ccccc1)N[C@@H](C)C(=O)N1Cc2cc(OC)c(OC)cc2C[C@H]1C(=O)O [MOEXIPRIL] | 3 | Ambiguous-Dili-Concern
6 | CCCCCCCC/C=C\CCCCCCCC(=O)O.NCCO [ETHANOLAMINE OLEATE] | 0 | No-Dili-Concern
7 | CC[N+](C)(C)c1cccc(O)c1 [EDROPHONIUM] | 0 | No-Dili-Concern
8 | NS(=O)(=O)c1cc2c(cc1C(F)(F)F)NC(Cc1ccccc1)NS2(=O)=O (stereo not given) [BENDROFLUMETHIAZIDE] | 5 | Less-Dili-Concern
9 | C/C=C1\NC(=O)[C@@H]2CSSCC/C=C/[C@@H](CC(=O)N[C@H](C(C)C)C(=O)N2)OC(=O)[C@H](C(C)C)NC1=O | 0 | No-Dili-Concern
10 | CCCCCOc1ccc(-c2ccc(-c3ccc(C(=O)N[C@H]4C[C@@H](O)[C@@H](O)NC(=O)[C@@H]5[C@@H](O)[C@@H](C)CN5C(=O)[C@H]([C@@H](C)O)NC(=O)[C@H]([C@H](O)[C@@H](O)c5ccc(O)cc5)NC(=O)[C@@H]5C[C@@H](O)CN5C(=O)[C@H]([C@@H](C)O)NC4=O)cc3)cc2)cc1 [ANIDULAFUNGIN] ({pTerphenylCO(4''-OnC5H11)}-[Orn(4R-OH,5R-OH)]T[Hyp][hTyr(3S-OH,4S-OH)]T[Pro(3S-OH,4S-Me)]; lactam 1-C) | 7 | Ambiguous-Dili-Concern
11 | CNC(=C[N+](=O)[O-])NCCSCc1csc(CN(C)C)n1 [NIZATIDINE] | 5 | Less-Dili-Concern
12 | COC(c1ccccc1)(c1ccccc1)[C@H](Oc1nc(C)cc(C)n1)C(=O)O [AMBRISENTAN] | 7 | Ambiguous-Dili-Concern
13 | CNC(=O)c1cnn(-c2nc(N)c3ncn([C@@H]4O[C@H](CO)[C@@H](O)[C@H]4O)c3n2)c1 [REGADENOSON ANHYDROUS] | 0 | No-Dili-Concern
14 | COc1c2occc2cc2ccc(=O)oc12 [METHOXSALEN] | 3 | Less-Dili-Concern
15 | CC(C)C[C@H](NC(=O)[C@@H](COC(C)(C)C)NC(=O)[C@H](Cc1ccc(O)cc1)NC(=O)[C@H](CO)NC(=O)[C@H](Cc1c[nH]c2ccccc12)NC(=O)[C@H](Cc1cnc[nH]1)NC(=O)[C@@H]1CCC(=O)N1)C(=O)N[C@@H](CCCNC(=N)N)C(=O)N1CCC[C@H]1C(=O)NNC(N)=O [GOSERELIN] | 3 | Ambiguous-Dili-Concern
16 | CC(=O)N[C@H](Cc1ccc2ccccc2c1)C(=O)N[C@H](Cc1ccc(Cl)cc1)C(=O)N[C@H](Cc1cccnc1)C(=O)N[C@@H](CO)C(=O)N[C@@H](Cc1ccc(NC(=O)[C@@H]2CC(=O)NC(=O)N2)cc1)C(=O)N[C@H](Cc1ccc(NC(N)=O)cc1)C(=O)N[C@@H](CC(C)C)C(=O)N[C@@H](CCCCNC(C)C)C(=O)N1CCC[C@H]1C(=O)N[C@H](C)C(N)=O [DEGARELIX] (Ac-[d2Nal][dPhe(4-Cl)][d3Pal]S[Phe(4-NH2)](Dihydroorotyl(S))[dPhe(4-NHCONH2)]L[Lys(iPr)]P[dA]-NH2) | 3 | Ambiguous-Dili-Concern
17 | Nc1ccc(O)c(C(=O)O)c1 [MESALAMINE] | 7 | Less-Dili-Concern
18 | C=C1/C(=C\C=C2/CCC[C@]3(C)[C@@H]([C@H](C)/C=C/[C@H](C)C(C)C)CC[C@@H]23)C[C@@H](O)C[C@@H]1O [DOXERCALCIFEROL] | 3 | Ambiguous-Dili-Concern
19 | O=C(O)CCNC(=O)c1ccc(/N=N/c2ccc(O)c(C(=O)O)c2)cc1 [BALSALAZIDE] | 8 | Ambiguous-Dili-Concern
20 | C=CC1=C(C(=O)O)N2C(=O)[C@@H](NC(=O)/C(=N\O)c3csc(N)n3)[C@H]2SC1 | 7 | Less-Dili-Concern
21 | OC[C@H]1O[C@@H](n2cnc3c2NC=NC[C@H]3O)C[C@@H]1O [PENTOSTATIN] | 3 | Most-Dili-Concern
22 | CCc1nc(N)nc(N)c1-c1ccc(Cl)cc1 [PYRIMETHAMINE] | 3 | Less-Dili-Concern
23 | O=C(O)COc1ccc(C(=O)c2cccs2)c(Cl)c1Cl | 8 | Most-Dili-Concern
24 | CN1[C@@H]2C[C@@H](OC(=O)[C@H](CO)c3ccccc3)C[C@H]1[C@@H]1O[C@@H]12 [SCOPOLAMINE] | 0 | No-Dili-Concern
25 | CN(C)CCc1c[nH]c2ccc(Cn3cncn3)cc12 [RIZATRIPTAN] | 0 | No-Dili-Concern
